# From patent publication US4522803A (priority 1983, dated 1985)
# Read-outs that look alike come from different tables or passages of the source.
# Tests used:
# B. canis [1] = test system: B. canis; set-up: species or system B. canis ATCC 23365; settings: in vivo
# B. canis [2] = assay type: cell-based; settings: suspension culture
# [3] = Retention and sustained release of gentamycin after topical application in eyes of mice
# B. canis [4] = test system: B. canis; set-up: species or system B. canis ATCC 23365; settings: in vivo, ip, 10 mg/kg
# B. canis [5] = test system: B. canis; set-up: species or system B. canis ATCC 23365; settings: in vivo, ip, 10 mg/kg; remark: listed apart in the source
# M. bovis = assay type: in vivo
# B. canis [6] = test system: B. canis; set-up: species or system B. canis ATCC 23365; settings: in vivo; remark: listed apart in the source
# B. abortus [7] = test system: B. abortus; set-up: species or system B. abortus ATCC 23451; settings: in vivo, ip, 10 mg/kg
# B. canis [8] = assay type: cell-based
# B. canis antigen = settings: in vivo
# B. abortus [9] = assay type: cell-based; settings: mean ± SD of 12 replicates; streptomycin 1 mg/ml, 24 hours
molecule,measurement,setting,value
CN[C@@H]1[C@H](O[C@H]2[C@H](O[C@H]3[C@H](O)[C@@H](O)[C@H](NC(=N)N)[C@@H](O)[C@@H]3NC(=N)N)O[C@@H](C)[C@]2(O)CO)O[C@@H](CO)[C@H](O)[C@H]1O [Dihydrostreptomycin],Colony-Forming Units B. Canis Per Spleen,B. canis [1],1.13 ± 0.30 × 10^5
same,Killing of B. canis in vitro,B. canis [2],kill B. canis in vitro
Gentamycin,Gentamycin retained in eyelid tissue,"[3]; 4 hours, topical",less than 5%
same,Gentamycin sulfate cleared,[3]; within a 4 hour period,95%
same,Killing of B. canis in vitro,B. canis [2],kill B. canis in vitro
[H]/N=C(/N)N[C@H]1[C@H](O)[C@@H](O)[C@H](O[C@@H]2O[C@@H](C)[C@](O)(C=O)[C@H]2O[C@@H]2O[C@@H](CO)[C@H](O)[C@@H](O)[C@@H]2NC)[C@@H](N/C(N)=N\[H])[C@@H]1O [Streptomycin],Surviving B. canis per organ,B. canis [4],viable B. canis organisms could be isolated in all tissues sampled
same,Blood and vaginal culture outcome,B. canis [5],remained culture positive for blood and vaginal cultures during post-treatment periods
same,M. Bovis cultures positive,"M. bovis; UV-radiated, day 3 post-treatment",3/5
same,M. Bovis cultures positive,"M. bovis; UV-radiated, day 5 post-treatment",4/5
same,Number of mice with corneal opacity score 0,"M. bovis; UV-radiated, post-treatment",14
same,Number of mice with corneal opacity score 1 (loss of normal luster),"M. bovis; UV-radiated, post-treatment",3
same,Number of mice with corneal opacity score 2 (small foci of opacity),"M. bovis; UV-radiated, post-treatment",2
same,Number of mice with corneal opacity score 3 (partial opacity),"M. bovis; UV-radiated, post-treatment",1
same,Number of mice with corneal opacity score 4 (total opacity),"M. bovis; UV-radiated, post-treatment",0
same,Number of mice with corneal opacity score 0,"M. bovis; UV-radiated, pre-treatment",0
same,Number of mice with corneal opacity score 1 (loss of normal luster),"M. bovis; UV-radiated, pre-treatment",4
same,Number of mice with corneal opacity score 2 (small foci of opacity),"M. bovis; UV-radiated, pre-treatment",9
same,Number of mice with corneal opacity score 3 (partial opacity),"M. bovis; UV-radiated, pre-treatment",7
same,Number of mice with corneal opacity score 4 (total opacity),"M. bovis; UV-radiated, pre-treatment",0
same,M. Bovis cultures positive,"M. bovis; non-radiated, day 3 post-treatment",2/5
same,M. Bovis cultures positive,"M. bovis; non-radiated, day 5 post-treatment",2/5
same,Number of mice with corneal opacity score 0,"M. bovis; non-radiated, post-treatment",18
same,Number of mice with corneal opacity score 1 (loss of normal luster),"M. bovis; non-radiated, post-treatment",2
same,Number of mice with corneal opacity score 2 (small foci of opacity),"M. bovis; non-radiated, post-treatment",0
same,Number of mice with corneal opacity score 3 (partial opacity),"M. bovis; non-radiated, post-treatment",0
same,Number of mice with corneal opacity score 4 (total opacity),"M. bovis; non-radiated, post-treatment",0
same,Number of mice with corneal opacity score 0,"M. bovis; non-radiated, pre-treatment",18
same,Number of mice with corneal opacity score 1 (loss of normal luster),"M. bovis; non-radiated, pre-treatment",1
same,Number of mice with corneal opacity score 2 (small foci of opacity),"M. bovis; non-radiated, pre-treatment",1
same,Number of mice with corneal opacity score 3 (partial opacity),"M. bovis; non-radiated, pre-treatment",0
same,Number of mice with corneal opacity score 4 (total opacity),"M. bovis; non-radiated, pre-treatment",0
same,Surviving B. canis in spleens,B. canis [6],very little reduction in surviving B. canis in spleens was observed
same,Surviving B. abortus in spleen,B. abortus [7],viable B. abortus bacteria were be identified
same,Colony-forming units of intracellular B. canis,B. canis [8],3.11 + 0.40 × 10^3 CFU
same,"M (2-mercaptoethanol tube agglutination test), reciprocal of serum titer",B. canis antigen,0 × 10^2
same,"R (rapid slide agglutination test), reciprocal of serum titer",B. canis antigen,0 × 10^2
same,Serum antibody against B. canis,"B. canis antigen; ip, 10 mg/kg",developed detectable serum titers against B. canis antigens by day 21 post-inoculation
same,Colony-Forming Units B. Canis Per Spleen,B. canis [1],1.01 ± 0.17 × 10^5
same,Colony-forming units of intracellular B. abortus,B. abortus [9],3.3 ± 0.25 × 10^4 CFU
same,Killing of B. canis in vitro,B. canis [2],kill B. canis in vitro
